Patent US12459891B2, “1-[1-(4-benzyloxy-3,5-difluoro-benzoyl)-4-fluoro-pyrrolidine-2-carbonyl]-pyrrolidine-2-carbonitrile” (ACCURE THERAPEUTICS, S.L., priority 2020, dated 2025)

Experiments:
[1] = test system: MK-801-treated mice; test: Novel object recognition (NOR) task, MK-801-induced cognitive deficit; assay type: in vivo, male C57/Bl6 mice; details: mean ± s.e.m.
[2] = test system: POP; details: non-competitive POP inhibitor; read-out: IC50 (POP inhibition); cited from earlier work

| SMILES | % discrimination index ([1]; MK 801 0.2 mg/kg sc alone (vehicle ip), intraperitoneal experiment) [%] | % discrimination index ([1]; MK 801 0.2 mg/kg sc alone (vehicle po), oral experiment) [%] | IC50 [2] [µM] |
| --- | --- | --- | --- |
| C[C@]12N[C@H](Cc3ccccc31)c1ccccc12 [MK 801, Dizocilpine] | 21 ± 4.7 | 16.6 ± 5.9 |  |
| O=C(/C=C/c1ccc(O)c(O)c1)O[C@H](Cc1ccc(O)c(O)c1)C(=O)O [rosmarinic acid] |  |  | 63.7 |
